# pIC50: −log10 of the molar value.
# Assays:
# CCRF-CEM = test: Cytotoxicity in human CCRF-CEM cells by resazurin reduction assay; assay type: functional, cell-based
# K562 [1] = test: Cytotoxicity in human K562 cells by SRB assay; assay type: functional, cell-based
# A-375 = test: Cytotoxicity in human A375 cells; assay type: functional, cell-based
# Caco-2 = test: Cytotoxicity in human Caco2 cells after 72 hrs by MTT assay; assay type: functional, cell-based; conditions: Caco-2, 72 h
# K562 [2] = test: Cytotoxicity in human K562 cells after 24 hrs by trypan blue exclusion assay; assay type: functional, cell-based; conditions: K562, 24 h
# [3] = Inhibition of nuclear factor-kappa-B (unknown origin) expressed in human K562 cells pre-incubated for 2 hrs followed by TNFalpha stimulation for 6 hrs by luciferase reporter gene assay; assay type: cell-based
compound,measurement,setting,value
COc1cc(O)cc(O)c1C(=O)/C=C/c1ccccc1 [CARDAMOMIN],pIC50,CCRF-CEM,≥ 5.00
COc1cc(O)c(OC)c(O)c1C(=O)/C=C/c1ccccc1,pIC50,CCRF-CEM,≥ 5.00
C[C@@H]1O[C@@H](Oc2c(-c3cc(O)c(O)c(O)c3)oc3cc(O)cc(O)c3c2=O)[C@H](O)[C@H](OC(=O)c2cc(O)c(O)c(O)c2)[C@H]1O,IC50,K562 [1],30.5 µg/mL
O=C1c2ccc(O)cc2O[C@H](c2ccc(O)c(O)c2)[C@H]1O [FUSTIN],IC50,K562 [1],> 100 µg/mL
O=c1c(O)c(-c2ccc(O)c(O)c2)oc2cc(O)cc(O)c12 [QUERCETIN],IC50,A-375,0.00154 µg/mL
O=c1cc(-c2ccccc2)oc2cc(O)cc(O)c12 [CHRYSIN],pIC50,Caco-2,5.02
O=c1cc(-c2ccccc2)oc2ccccc12 [FLAVONE],pIC50,Caco-2,4.68
COc1ccc([C@@H]2CC(=O)c3c(O)cc(O)cc3O2)cc1O [HESPERETIN],pIC50,Caco-2,4.18
CC1=Cc2c(C(C)C)ccc(C)c2C(=O)C1=O,pIC50,K562 [1],5.84
O=c1[nH]cc(F)c(=O)[nH]1 [FLUOROURACIL],pIC50,Caco-2,4.22
"C[C@H]1O[C@H](Oc2c(-c3ccc(O)cc3)oc3cc(O)cc(O)c3c2=O)[C@@H](O)[C@@H](O)[C@@H]1O (single isomer, unassigned) [KAEMPFEROL-3-O-RHAMNOSIDE]",pIC50,K562 [2],4.82
same,pIC50,[3],5.39
O=c1c(O)c(-c2ccccc2)oc2ccccc12 [FLAVONOL],pIC50,Caco-2,4.38
COc1cc(O)cc(OC)c1C(=O)/C=C/c1ccccc1,pIC50,CCRF-CEM,≥ 5.00
O=c1c(O)c(-c2ccc(O)cc2)oc2cc(O)cc(O)c12 [KAEMPFEROL],IC50,A-375,0.012 µg/mL

# Reference: ChEMBL document CHEMBL4270499, “Recent discoveries of anticancer flavonoids” (Eur J Med Chem, 2017)
